Assay results published in patent US8410138B2, “Compounds for activating TGF-beta signaling” (The Board of Trustees of the Leland Stanford Junior …, priority 2007, dated 2013).
Where two headings read alike, the source gives them in different places.

Assays:
[1] = system: TGF-β signaling (SBE-SEAP reporter) in MFB-F11 cells; format: cell-based, mouse; conditions: for Relative TGF-β activity, fold change compared with vehicle: cell reporter assay; for TGF-β agonist activity: data of FIGS. 1A-1J
Description: All compounds were tested twice, in duplicate, using the MFB-F11 cell line. 80 compounds were selected for further study based on induction of the reporter gene in any of the replicates. These compounds were tested again in MFB-F11 or C6-H4 cells, either alone or in the presence of 100 pg/ml of TGF-β1, to test for synergistic activities.

[2] = system: fibroblasts lacking Smad2, Smad3 or Smad4; experiment: SBE reporter signaling in fibroblasts lacking elements of the TGF-β signaling pathway; format: cell-based; conditions: Smad4-lacking fibroblasts; FIG. 2D
Excerpt: To understand how the TGF-β signaling agonists function and identify molecular genetic targets in cells, fibroblasts lacking different elements of the TGF-β3 signaling pathway, including Smad2, Smad3, and Smad4, were used in combination with plasmids encoding different inhibitors of the TGF-β signaling pathway to study TGF-β agonists in different backgrounds. For reference, the canonical TGF-β signaling pathway is illustrated in FIG. 2A. The biological actions of TGF-β1 are mediated through interactions with the type 2 TGF beta receptor (TBR2) 2 and the type I TGF beta receptor (TBRI) 3. Betaglycan 4 may participate in the binding of TGF-β1. Receptor activation leads to the phosphorylation of Smad proteins, such as Smad 2/3 5 and Smad 4 6, which translocate to the nucleus 7 to bind to the Smad DNA-binding element (SBE) 8, present in numerous genes, in combination with transcription factors (TF) 9. Smad 7 10 is inhibitory with respect to Smad 2/3 5 phosphorylation. Alternative signaling involves p38 11 and the MAP kinase pathway. TAB1 12 activates TAK1 13, which activates p38 11.
Because Smad2 and Smad3 can substitute for each other, results with Smad2 or Smad3 knock-out fibroblasts were more difficult to interpret. Nonetheless, the synergistic effect of TGF-β1 and 11H was blocked in the absence of Smad2 (FIG. 2B) or Smad3 (not shown). In these assays, signaling is reported via SBE elements, which are specific elements that bind Smad proteins. Thus, the 11H compound must signal through this element. Without being limited to theory, it is believed that the 3A compound functions as a competitive agonist of Smad binding to the SBE, representing a novel target and mode of action.

CC(C)N(CC(=O)N(CCc1c[nH]c2ccccc12)Cc1ccc(Cl)c(Cl)c1)C(=O)CC(C)(C)C [Compound 37C02]
Relative TGF-β activity, fold change compared with vehicle ([1]; 3 μM): 0.7 fold | Relative TGF-β activity, fold change compared with vehicle ([1]; 10 μM): 1.0 fold | Relative TGF-β activity, fold change compared with vehicle ([1]; 30 μM): 1.4 fold | Relative TGF-β activity, fold change compared with vehicle ([1]; 100 μM): 3.1 fold

COCCN(CC(=O)N(CCc1c[nH]c2ccccc12)Cc1ccc(OC)c(OC)c1)C(=O)C(Cl)Cl [Compound 24D04]
Relative TGF-β activity, fold change compared with vehicle ([1]; 3 μM): 1.2 fold | Relative TGF-β activity, fold change compared with vehicle ([1]; 10 μM): 1.1 fold | Relative TGF-β activity, fold change compared with vehicle ([1]; 30 μM): 1.5 fold | Relative TGF-β activity, fold change compared with vehicle ([1]; 100 μM): 2.7 fold

CCOC(=O)CCC(=O)N(CC(=O)N(CCc1c[nH]c2ccccc12)Cc1ccc(N(C)C)cc1)C(C)C [Compound 23D05]
Relative TGF-β activity, fold change compared with vehicle ([1]; 3 μM): 0.8 fold | Relative TGF-β activity, fold change compared with vehicle ([1]; 10 μM): 1.1 fold | Relative TGF-β activity, fold change compared with vehicle ([1]; 30 μM): 1.7 fold | Relative TGF-β activity, fold change compared with vehicle ([1]; 100 μM): 4.7 fold

CC(C)(CCl)C(=O)N(CC(=O)N(CCc1c[nH]c2ccccc12)Cc1ccccc1)C1CC1 [Compound 44A04]
Relative TGF-β activity, fold change compared with vehicle ([1]; 3 μM): 1.2 fold | Relative TGF-β activity, fold change compared with vehicle ([1]; 10 μM): 2.3 fold | Relative TGF-β activity, fold change compared with vehicle ([1]; 30 μM): 2.7 fold | Relative TGF-β activity, fold change compared with vehicle ([1]; 100 μM): 2.8 fold

COCCCN(CC(=O)N(CCc1c[nH]c2ccccc12)Cc1ccc(F)cc1)C(=O)c1ccc(C(F)(F)F)cc1 [Compound 22E02]
Relative TGF-β activity, fold change compared with vehicle ([1]; 3 μM): 1.4 fold | Relative TGF-β activity, fold change compared with vehicle ([1]; 10 μM): 4.7 fold | Relative TGF-β activity, fold change compared with vehicle ([1]; 30 μM): 8.6 fold | Relative TGF-β activity, fold change compared with vehicle ([1]; 100 μM): 9.1 fold

COCCN(CC(=O)N(CCc1c[nH]c2ccccc12)Cc1ccc(F)cc1)C(=O)c1ccc(Cl)c([N+](=O)[O-])c1 [Compound 22B05]
Relative TGF-β activity, fold change compared with vehicle ([1]; 3 μM): 1.1 fold | Relative TGF-β activity, fold change compared with vehicle ([1]; 10 μM): 1.2 fold | Relative TGF-β activity, fold change compared with vehicle ([1]; 30 μM): 1.7 fold | Relative TGF-β activity, fold change compared with vehicle ([1]; 100 μM): 2.8 fold

COCCCN(CC(=O)N(CCc1c[nH]c2ccccc12)Cc1ccc(F)cc1)C(=O)c1ccccc1Cl [Compound 22D03]
Relative TGF-β activity, fold change compared with vehicle ([1]; 3 μM): 1.4 fold | Relative TGF-β activity, fold change compared with vehicle ([1]; 10 μM): 3.7 fold | Relative TGF-β activity, fold change compared with vehicle ([1]; 30 μM): 8.3 fold | Relative TGF-β activity, fold change compared with vehicle ([1]; 100 μM): 8.8 fold

COCCN(CC(=O)N(CCc1c[nH]c2ccccc12)Cc1ccccc1)C(=O)Cc1cccs1 [Compound 3A, N-(2-(1H-indol-3-yl)ethyl)-N-benzyl-2-(N-(2-methoxyethyl)-2-(thiophen-2-yl)acetamido)acetamide]
Signaling in the absence of Smad4 [2]: not affected (or was even stronger) | Relative TGF-β activity, fold change compared with vehicle ([1]; 3 μM): 1.7 fold | Relative TGF-β activity, fold change compared with vehicle ([1]; 10 μM): 2.9 fold | Relative TGF-β activity, fold change compared with vehicle ([1]; 30 μM): 5.2 fold | Relative TGF-β activity, fold change compared with vehicle ([1]; 100 μM): 11.4 fold | TGF-β agonist activity [1]: TGF-β-agonists

CCOC(=O)CNC(=O)Nc1ccc(N2CCN(c3ccccc3OC)CC2)c(C(=O)NC(C)c2ccccc2)c1 (stereo not drawn) [Compound 5E, ethyl 2-(3-(4-(4-(2-methoxyphenyl)piperazin-1-yl)-3-(1-phenylethylcarbamoyl)phenyl)ureido)acetate]
TGF-β agonist activity [1]: TGF-β-agonists

COCCN(CC(=O)N(CCc1c[nH]c2ccccc12)Cc1ccc(F)cc1)C(=O)C(C)Cl (stereo not drawn) [Compound 13F03]
Relative TGF-β activity, fold change compared with vehicle ([1]; 3 μM): 1.3 fold | Relative TGF-β activity, fold change compared with vehicle ([1]; 10 μM): 1.9 fold | Relative TGF-β activity, fold change compared with vehicle ([1]; 30 μM): 3.8 fold | Relative TGF-β activity, fold change compared with vehicle ([1]; 100 μM): 9.1 fold

CC(C)N(CC(=O)N(CCc1c[nH]c2ccccc12)Cc1ccc(N(C)C)cc1)C(=O)C(Cl)Cl [Compound 23B08]
Relative TGF-β activity, fold change compared with vehicle ([1]; 3 μM): 1.1 fold | Relative TGF-β activity, fold change compared with vehicle ([1]; 10 μM): 1.8 fold | Relative TGF-β activity, fold change compared with vehicle ([1]; 30 μM): 3.1 fold | Relative TGF-β activity, fold change compared with vehicle ([1]; 100 μM): 4.5 fold

COCCCN(CC(=O)N(CCc1c[nH]c2ccccc12)Cc1ccc(C(F)(F)F)cc1)C(=O)C1CC1c1ccccc1 (stereo not drawn) [Compound 21A08]
Relative TGF-β activity, fold change compared with vehicle ([1]; 3 μM): 1.1 fold | Relative TGF-β activity, fold change compared with vehicle ([1]; 10 μM): 1.5 fold | Relative TGF-β activity, fold change compared with vehicle ([1]; 30 μM): 1.9 fold | Relative TGF-β activity, fold change compared with vehicle ([1]; 100 μM): 2.7 fold

Cc1ccc(C(=O)N(CC(=O)N(CCc2c[nH]c3ccccc23)Cc2ccc(C(F)(F)F)cc2)C(C)C)cc1[N+](=O)[O-] [Compound 21F11]
Relative TGF-β activity, fold change compared with vehicle ([1]; 3 μM): 0.8 fold | Relative TGF-β activity, fold change compared with vehicle ([1]; 10 μM): 1.6 fold | Relative TGF-β activity, fold change compared with vehicle ([1]; 30 μM): 2.7 fold | Relative TGF-β activity, fold change compared with vehicle ([1]; 100 μM): 6.5 fold
